Assay results: patent US11237158B2, “Time-resolved fluorescent immunochromatographic test strip for detecting paclitaxel drugs as well as preparation method and application thereof” (BEIJING DIAGREAT BIOTEC[…]., LTD., priority 2018, dated 2022)

System: anti-PTX monoclonal antibody
Assay: PTX analog interference test (cross reaction rate) on the time-resolved fluorescent immunochromatographic test strip
Format: binding, mouse
Method: 20 ul of sample is accurately pipetted into 180 ul of sample diluent and mixed fully.
80 uL of sample solution to be tested is accurately pipetted into a test strip loading well with a micropipette, and reaction is carried out at room temperature (20-25° C.) for 15 min. The test strip is inserted into a load carrier of a fluorescence detector, an item to be tested is selected by touching a display screen, a “Detection Start” button is pressed, the fluorescence detector automatically scans the test strip, and a test result is read through the display screen of an instrument or printed.
Quantitative detection: after the test is completed, the instrument obtains the ratio of the time-resolved fluorescent intensity of the detection area on the test strip to the time-resolved fluorescent intensity of the quality control area. Based on a relationship curve of the ratio of the time-resolved fluorescent intensity of the detection area on the pre-built test strip to the time-resolved fluorescent intensity of the quality control area and the concentration of PTX drugs, the content of PTX drug in the sample to be tested is obtained, and finally, the content of the PTX drug in the sample to be tested is obtained by conversion.
The cross reaction rate is measured according to the method of Embodiment 2.
Several analogs of PTX are selected for interference testing.

For `CC(=O)O[C@H]1C[C@@]2(O)[C@@H](OC(C)=O)[C@@H]3[C@@]4(CO4)[C@@H](OC(C)=O)C[C@H](OC(C)=O)[C@@]3(C)[C@@H](OC(C)=O)[C@H](OC(C)=O)C(=C1C)C2(C)C` [1-Hydroxybaccatin I], the Cross reaction rate (test concentration 1,000 ng/mL) was <0.01%.
For `CC(=O)O[C@H]1C(=O)[C@@]2(C)[C@H]([C@H](OC(=O)c3ccccc3)[C@]3(O)C[C@H](O)C(C)=C1C3(C)C)[C@]1(OC(C)=O)CO[C@@H]1C[C@@H]2O` [Baccatin III], the Cross reaction rate (test concentration 1,000 ng/mL) was <0.01%.
`CC(=O)O[C@H]1C(=O)[C@@]2(C)[C@H]([C@H](OC(=O)c3ccccc3)[C@]3(O)C[C@H](OC(=O)[C@H](O)[C@@H](NC(=O)c4ccccc4)c4ccccc4)C(C)=C1C3(C)C)[C@]1(OC(C)=O)CO[C@@H]1C[C@@H]2O` [Paclitaxel] showed a Cross reaction rate (test concentration 100 ng/mL) of 100%.
For `CC(=O)OC1CC2(OC(C)=O)C(OC(C)=O)C3C4(CO4)C(O)CC(OC(C)=O)C3(C)C(OC(C)=O)C(OC(C)=O)C(=C1C)C2(C)C` (stereo not drawn) [1-Acetoxyl-5-deacetyl-baccatin I], the Cross reaction rate (test concentration 1,000 ng/mL) was <0.01%.
For `CC(=O)O[C@@]12CO[C@@H]1C[C@H](O)[C@@]1(C)C(=O)[C@H](O)C3=C(C)[C@@H](O)C[C@@](O)([C@@H](OC(=O)c4ccccc4)[C@H]21)C3(C)C` [10-Deacetyl-baccatin III], the Cross reaction rate (test concentration 1,000 ng/mL) was <0.01%.
In the case of `CC(=O)OC1CC2(O)C(OC(=O)c3ccccc3)C3C4(OC(C)=O)COC4CC(O)C3(C)C(O)C(OC(C)=O)C(=C1C)C2(C)C` (stereo not drawn) [13-Acetyl-9-dihydrobaccatin III], the Cross reaction rate (test concentration 1,000 ng/mL) is reported as <0.01%.
With `CC(=O)O[C@H]1C(=O)[C@]2(C)[C@@H](O[C@@H]3OC[C@@H](O)[C@H](O)[C@H]3O)C[C@H]3OC[C@@]3(OC(C)=O)[C@H]2[C@H](OC(=O)c2ccccc2)[C@]2(O)C[C@H](OC(=O)[C@H](O)[C@@H](NC(=O)c3ccccc3)c3ccccc3)C(C)=C1C2(C)C` [7-Xylosyltaxol] the Cross reaction rate (test concentration 1,000 ng/mL) was <1%.
`CC(=O)O[C@@]12CO[C@@H]1C[C@H](O)[C@@]1(C)C(=O)[C@H](O)C3=C(C)[C@@H](OC(=O)[C@H](O)[C@@H](NC(=O)OC(C)(C)C)c4ccccc4)C[C@@](O)([C@@H](OC(=O)c4ccccc4)[C@H]21)C3(C)C` [Docetaxel] was tested, and the Cross reaction rate (test concentration 1,000 ng/mL) was <1%.
With `C/C=C(\C)C(=O)N[C@@H](c1ccccc1)[C@@H](O)C(=O)O[C@H]1C[C@@]2(O)[C@@H](OC(=O)c3ccccc3)[C@@H]3[C@]4(OC(C)=O)CO[C@@H]4C[C@H](O)[C@@]3(C)C(=O)[C@H](OC(C)=O)C(=C1C)C2(C)C` [Cephalomannine] the Cross reaction rate (test concentration 1,000 ng/mL) was <0.04%.
